Data: publication PMC4769701, “Discovery and characterization of a high-affinity and high-specificity peptide ligand LXY30 for in vivo targeting of α3 integrin-expressing human tumors” (EJNMMI Research, 2016)
Positions of bridges follow the written chain, without caps; N, C: chain ends. Non-standard residues stand in square brackets, D forms with d. Residues, ends and D or L forms follow the SMILES beside them. Phe(3,4,5-F3) = N[C@@H](Cc1cc(F)c(F)c(F)c1)C(=O)O; Phe(3,5-F2) = N[C@@H](Cc1cc(F)cc(F)c1)C(=O)O; Hyp = O=C(O)[C@@H]1C[C@@H](O)CN1

How the values were obtained:
[1] = tested on: subcutaneous U-87MG xenograft tumors; assay: In vivo NIRF optical imaging, subcutaneous xenograft; set-up: species or system nude mice; settings: for improvement in tumor targeting over LXY1: optical imaging, U-87MG glioblastoma xenograft model, data not shown
From the text: Halogen lamp light source was set to maximum.

[2] = target: T1, α3β1 integrin-expressing U-87MG glioblastoma cells (Homo sapiens, UniProt P26006); assay: biochemical; type: binding; settings: for Relative binding index: peptide 0.4 μM competing with 0.5 μM LXY1-biotin on U-87MG cells, relative to LXY1, greater RBI = higher affinity; for IC50: series of concentrations competing with 0.5 μM LXY1-biotin binding to U-87MG cells
T1 construct: we incubated U-87MG cells which express α3β1 integrin; endogenous in cells; host or cells: U-87MG human glioblastoma cells
Method: (§1) Confluent tumor cells (80-90 %) were dissociated with 0.05 % trypsin-EDTA and neutralized with culture medium. To determine the expression of α3 and β1 integrins, 1 μg of anti-α3 or anti-β1 antibody was mixed with 1 million cells for 30 min, followed by anti-mouse IgG-PE incubation and flow cytometry (Coulter XL-MCL). […] Then each sample was washed three times with 1 mL PBS containing 1 % FBS. Samples thereafter were incubated with a 1:500 dilution of streptavidin-PE (1 mg/mL) for 30 min on ice followed by a single wash with 1 mL of PBS containing 1 % FBS. Finally, the samples in PBS were analyzed by flow cytometry. […] The mixture was then incubated with cancer cells followed by streptavidin-PE. Samples were analyzed by flow cytometry, and mean fluorescence intensity (MFI) was decided for each individual sample. […] For blocking experiments, the samples were incubated with non-biotinylated LXY30, anti-α3, or anti-β1 antibody for 30 min prior to incubation with 20 nM biotinylated LXY30.

[3] = In vitro stability assay in human plasma; type: in vitro ADME; settings: 90% human plasma (EDTA, healthy donors); 200 µM in 90% human plasma, 37°C, up to 8 days, RP-HPLC; t1/2=1/kobs·ln(2)
Method: Figure S3. The in vitro stability of LXY30 in human plasma. LXY30 was incubated with 90% human plasma from healthy donor at 37°C for up to 8 days. The peptide concentrations were determined by integration of the LXY30 peak (area) from reversed-phase high-performance liquid chromatography (RP-HPLC) chromatograms at UV 214 nm. The half-life of LXY30 in the plasma was calculated as 16.0 days using the formula t1/2=1/kobs·ln(2). Assays were performed in triplicate.
Human plasma was separated from the peripheral blood collected in the EDTA-containing blood collection tube from healthy donors. One hundred microliters of LXY30 solution (2 mM in water) was mixed with 900 µL of plasma (final concentration of LXY30 was 200 µM) and incubated at 37°C under sterile conditions. […] A control plasma sample without LXY30 but treated in the same manner was also analyzed. […]
RP-HPLC analysis was performed on the Waters 2996 HPLC system equipped with a Luna® analytical column from Phenomenex (5 µm, C18, 100 A°, 250 x 4.6 mm). […] The relative concentrations of the remaining LXY30 were analyzed by the integration of the absorbance at 214 nm (area).
Half-life (t1/2) for LXY30 in the plasma solution was calculated from plots of the natural logarithm of the residual concentration against time using the formula t1/2=1/kobs·ln(2), where kobs is the apparent first order rate constant for the observed degradation.

H1975 = assay: LXY30 binding by flow cytometry; set-up: species or system human; settings: 1µM LXY30; H1975, lung, adenocarcinoma
Method: as §1, with “(80–90” for “(80-90”
(§2) *(MFI W/ LXY30)/ (MFI W/O LXY30): Mean Fluorescence Intensity of cells incubated with 1µM LXY30 divided by Mean Fluorescence Intensity of cells without incubation with LXY30.
(§3) Mean Fluorescence Intensity (MFI) was used as the quantitative measurement. The binding strength was grouped into five categories based on the value. “0”: 1 “1+”: 1.1~4.9 “2+”: 5~19.9 “3+”: 20~79.9 “4+”: > or = 80-fold

H460 = assay: LXY30 binding by flow cytometry; set-up: species or system human; settings: 1µM LXY30; H460, lung, large cell
Method: as §1, with “(80–90” for “(80-90”
as §2, §3

H1650 = assay: LXY30 binding by flow cytometry; set-up: species or system human; settings: 1µM LXY30; H1650, lung, bronchoalveolar
Method: as §1, with “(80–90” for “(80-90”
as §2, §3

T47D = assay: LXY30 binding by flow cytometry; set-up: species or system human; settings: 1µM LXY30, breast, luminal A
Method: as §1, with “(80–90” for “(80-90”
as §2, §3

H3255 = assay: LXY30 binding by flow cytometry; set-up: species or system human; settings: 1µM LXY30; H3255, lung, adenocarcinoma
Method: as §1, with “(80–90” for “(80-90”
as §2, §3

H2228 = assay: LXY30 binding by flow cytometry; set-up: species or system human; settings: 1µM LXY30; H2228, lung, adenocarcinoma
Method: as §1, with “(80–90” for “(80-90”
as §2, §3

MCF7 = assay: LXY30 binding by flow cytometry; set-up: species or system human; settings: 1µM LXY30; MCF7, breast, luminal A
Method: as §1, with “(80–90” for “(80-90”
as §2, §3

MDA-MB 231 = assay: LXY30 binding by flow cytometry; set-up: species or system human; settings: 1µM LXY30; MDA-MB 231, breast, basal like
Method: as §1, with “(80–90” for “(80-90”
as §2, §3

BT-20 = assay: LXY30 binding by flow cytometry; set-up: species or system human; settings: 1µM LXY30; BT-20, breast, basal like
Method: as §1, with “(80–90” for “(80-90”
as §2, §3

SKBR3 = assay: LXY30 binding by flow cytometry; set-up: species or system human; settings: 1µM LXY30; SKBR3, breast, HER2
Method: as §1, with “(80–90” for “(80-90”
as §2, §3

A549 = assay: LXY30 binding by flow cytometry; set-up: species or system human; settings: 1µM LXY30; A549, lung, adenocarcinoma
Method: as §1, with “(80–90” for “(80-90”
as §2, §3

HCC827 = assay: LXY30 binding by flow cytometry; set-up: species or system human; settings: 1µM LXY30; HCC827, lung, adenocarcinoma
Method: as §1, with “(80–90” for “(80-90”
as §2, §3

[4] = target: T2, α3 subunit of α3β1 integrin on U-87MG cells (Homo sapiens, UniProt P26006); assay: Blocking of LXY30-biotin binding to U-87MG cells, flow cytometry; settings: 100 μM free peptide pre-incubated 30 min before 20 nM LXY30-biotin
T2 construct: we incubated U-87MG cells which express α3β1 integrin; endogenous in cells; host or cells: U-87MG human glioblastoma cells
Method: as §1, with “(80–90” for “(80-90”
Fig. 2 Synthesis and chemical structures of several peptide conjugates and binding specificity of LXY30 to U-87MG cells. The synthesis and chemical structures of peptide conjugates LXY30-biotin, LXY30-FITC, and scrambled-LXY30-FITC (S-LXY30-FITC) used for in vitro and in vivo characterization, as well as imaging studies were shown (a). […]

T1 sequence (P26006 33-872 limits assumed): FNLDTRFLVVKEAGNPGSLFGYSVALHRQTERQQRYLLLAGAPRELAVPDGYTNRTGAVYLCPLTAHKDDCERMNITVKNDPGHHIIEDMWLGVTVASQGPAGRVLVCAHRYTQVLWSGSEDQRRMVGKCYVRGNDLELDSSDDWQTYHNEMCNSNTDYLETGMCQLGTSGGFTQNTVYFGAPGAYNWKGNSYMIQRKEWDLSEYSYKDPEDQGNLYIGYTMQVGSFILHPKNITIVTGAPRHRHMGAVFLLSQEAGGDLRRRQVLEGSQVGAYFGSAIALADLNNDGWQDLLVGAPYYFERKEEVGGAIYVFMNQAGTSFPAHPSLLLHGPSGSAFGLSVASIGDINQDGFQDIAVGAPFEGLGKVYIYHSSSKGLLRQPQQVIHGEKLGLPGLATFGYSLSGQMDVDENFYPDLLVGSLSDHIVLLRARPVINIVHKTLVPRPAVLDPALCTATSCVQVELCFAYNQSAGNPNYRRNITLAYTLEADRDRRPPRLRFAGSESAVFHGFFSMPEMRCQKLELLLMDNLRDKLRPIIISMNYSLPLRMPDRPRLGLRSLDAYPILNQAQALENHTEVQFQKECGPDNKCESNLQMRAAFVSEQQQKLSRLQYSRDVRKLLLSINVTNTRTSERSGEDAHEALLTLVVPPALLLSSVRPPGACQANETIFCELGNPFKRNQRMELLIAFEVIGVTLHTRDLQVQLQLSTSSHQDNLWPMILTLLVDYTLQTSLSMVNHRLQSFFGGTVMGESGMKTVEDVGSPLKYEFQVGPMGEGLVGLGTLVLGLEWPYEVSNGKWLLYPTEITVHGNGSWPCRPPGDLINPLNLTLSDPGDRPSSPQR
T1 sequence (P26006 873-1051 partner limits assumed): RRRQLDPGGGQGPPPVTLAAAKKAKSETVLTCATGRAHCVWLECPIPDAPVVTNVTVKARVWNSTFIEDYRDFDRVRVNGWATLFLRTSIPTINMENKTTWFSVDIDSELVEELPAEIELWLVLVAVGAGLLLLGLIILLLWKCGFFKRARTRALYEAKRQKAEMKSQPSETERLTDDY
T1 sequence (P05556 21-798 partner): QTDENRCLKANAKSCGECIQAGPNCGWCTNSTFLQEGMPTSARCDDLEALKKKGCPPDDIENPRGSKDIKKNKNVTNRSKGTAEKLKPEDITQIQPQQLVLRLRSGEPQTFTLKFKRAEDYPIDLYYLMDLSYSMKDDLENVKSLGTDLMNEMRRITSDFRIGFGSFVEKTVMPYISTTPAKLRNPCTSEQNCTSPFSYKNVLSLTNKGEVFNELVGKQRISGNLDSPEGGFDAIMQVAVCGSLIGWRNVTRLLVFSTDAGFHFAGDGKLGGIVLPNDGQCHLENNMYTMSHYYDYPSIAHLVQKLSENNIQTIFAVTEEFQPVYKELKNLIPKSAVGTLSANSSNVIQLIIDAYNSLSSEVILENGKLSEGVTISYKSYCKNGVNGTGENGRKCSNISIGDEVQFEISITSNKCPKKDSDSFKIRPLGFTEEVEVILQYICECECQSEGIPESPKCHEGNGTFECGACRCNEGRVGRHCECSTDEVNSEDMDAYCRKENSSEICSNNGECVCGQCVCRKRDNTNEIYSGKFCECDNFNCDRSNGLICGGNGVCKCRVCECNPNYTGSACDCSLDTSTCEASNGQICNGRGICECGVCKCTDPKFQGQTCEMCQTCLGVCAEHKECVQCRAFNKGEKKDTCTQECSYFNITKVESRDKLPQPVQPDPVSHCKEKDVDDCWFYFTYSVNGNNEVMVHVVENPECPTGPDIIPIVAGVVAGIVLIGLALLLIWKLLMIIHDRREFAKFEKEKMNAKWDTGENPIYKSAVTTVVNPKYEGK
T2 sequence (P26006 33-872 limits assumed): as the sequence (P26006 33-872 limits assumed) above
T2 sequence (P26006 873-1051 partner limits assumed): as the sequence (P26006 873-1051 partner limits assumed) above
T2 sequence (P05556 21-798 partner): as the sequence (P05556 21-798 partner) above

Compound: NC(=O)C[C@@H]1NC(=O)[C@@H]2C[C@@H](O)CN2C(=O)CNC(=O)[C@H](Cc2cc(F)cc(F)c2)NC(=O)CNC(=O)[C@@H](CC(=O)O)NC(=O)[C@H](N)CSSC[C@H](C(N)=O)NC1=O [LXY4, cdG-Phe(3,5-diF)-G-Hyp-Nc] (H-[dC][dD]G[Phe(3,5-F2)]G[Hyp]N[dC]-NH2; disulfide 1-8; N-terminus assumed)
- improvement in tumor targeting over LXY1 [1]: did not show improvement
- Relative binding index [2]: 1.36 ± 0.11
- IC50 [2]: 410 ± 30 nM

Compound: N=C(N)NCCC[C@H](NC(=O)[C@H]1CSSC[C@@H](N)C(=O)N[C@H](CC(=O)O)C(=O)NCC(=O)N[C@@H](Cc2cc(F)c(F)c(F)c2)C(=O)NCC(=O)N2C[C@H](O)C[C@H]2C(=O)N[C@@H](CC(N)=O)C(=O)N1)C(N)=O [LXY7] (H-[dC][dD]G[Phe(3,4,5-F3)]G[Hyp]N[dC]R-NH2; disulfide 1-8; N-terminus assumed)
- Relative binding index [2]: 1.62 ± 0.10
- IC50 [2]: 130 ± 12 nM

Compound: N=C(N)NCCC[C@H](NC(=O)[C@H]1CSSC[C@@H](N)C(=O)N[C@H](CC(=O)O)C(=O)NCC(=O)N[C@@H](Cc2cc(F)cc(F)c2)C(=O)NCC(=O)N2C[C@H](O)C[C@H]2C(=O)N[C@@H](CC(N)=O)C(=O)N1)C(N)=O [LXY30, cdG-Phe(3,5-diF)-G-Hyp-NcR] (H-[dC][dD]G[Phe(3,5-F2)]G[Hyp]N[dC]R-NH2; disulfide 1-8; N-terminus assumed)
- MFI of tumor, fold over LXY1 ([1]; tail vein, 1.8 nmol complex, ROI on xenograft tumor): 1.4 folds
- half-life at 200 µM [3]: 16 days
- (MFI W/ LXY30)/ (MFI W/O LXY30) (H1975): 4+ (“4+”: > or = 80-fold)
- (MFI W/ LXY30)/ (MFI W/O LXY30) (H460): 1+ (“1+”: 1.1~4.9)
- (MFI W/ LXY30)/ (MFI W/O LXY30) (H1650): 4+ (“4+”: > or = 80-fold)
- (MFI W/ LXY30)/ (MFI W/O LXY30) (T47D): 1+ (“1+”: 1.1~4.9)
- (MFI W/ LXY30)/ (MFI W/O LXY30) (H3255): 2+ (“2+”: 5~19.9)
- (MFI W/ LXY30)/ (MFI W/O LXY30) (H2228): 4+ (“4+”: > or = 80-fold)
- (MFI W/ LXY30)/ (MFI W/O LXY30) (MCF7): 2+ (“2+”: 5~19.9)
- (MFI W/ LXY30)/ (MFI W/O LXY30) (MDA-MB 231): 4+ (“4+”: > or = 80-fold)
- (MFI W/ LXY30)/ (MFI W/O LXY30) (BT-20): 2+ (“2+”: 5~19.9)
- (MFI W/ LXY30)/ (MFI W/O LXY30) (SKBR3): 1+ (“1+”: 1.1~4.9)
- (MFI W/ LXY30)/ (MFI W/O LXY30) (A549): 4+ (“4+”: > or = 80-fold)
- (MFI W/ LXY30)/ (MFI W/O LXY30) (HCC827): 4+ (“4+”: > or = 80-fold)
- blocking of LXY30-biotin binding by free peptide [4]: inhibited or prevented
- fold higher binding affinity compared to LXY1 ([2]; U-87MG cells, from IC50 values): 44 fold
- Relative binding index [2]: 1.68 ± 0.10
- IC50 [2]: 80 ± 10 nM

Compound: cdG-Tyr(3-NO2)-G-Hyp-Nc [LXY3]
- improvement in tumor targeting over LXY1 [1]: did not show improvement
